Data set [1] concerns rats. The data set can be described thus: Kidney histopathology in the rat toxicity study. Format: in vivo. Particulars: 150 mg/kg daily for 5 days. The protocol:
(§1) To evaluate toxicity of the liposomal formulations, rats were dosed daily with 150 mg/kg test formulation for 5 days, which is about 10-fold of a dose for human administration (typically 1 g).
(§2) The endpoints for renal damage were urinary biomarkers (KIM-1, Clusterin, Osteopontin), a plasma biomarker (creatinine), and histopathology findings for the kidney. Here, blood sampling was performed at a total volume of 2 mL and clinical chemistry samples were drawn pre-dosing, day 3, and day 5 (0.25 mL each), and pharmacokinetic samples were drawn on Day 1 (4 samples of 0.125 mL), Day 3 (4 samples of 0.125 mL), and Day 5 (2 samples of 0.125 mL). For each animal, at euthanasia, kidneys were formalin fixed and flash frozen in liquid nitrogen. Samples were analyzed for histopathological grading using standard procedures well known in the art.

Data set [2] has as its system rats. Nature of the data set: Urinary biomarkers of renal damage (KIM-1, clusterin, osteopontin) in the rat toxicity study. The data set is classed as in vivo. Conditions: 150 mg/kg daily for 5 days, FIG. 8. The protocol:
as §1, §2
Further exemplary results are shown for selected urinary markers in FIG. 8. Here, the markers included KIM-1, clusterin, and osteopontin (OPN). […] On the other hand, the markers remained substantially unchanged or only moderately elevated over control in both treatment groups where liposomal compositions according to the inventive subject matter were used.

The conditions of data set [3]: cited from earlier work.
Data set [4] in a line: Pharmacokinetic study in rat models (single dose, infusion). Format: in vivo. Conditions: 15 mg/kg, infusion time 1 h. The source says: 5. […] Thus, vancomycin was available for a prolonged period and less frequent administration is enabled.

Structures are written as SMILES. Like-named read-outs stand apart in the source and are kept apart here.

Take `CN[C@H](CC(C)C)C(=O)N[C@H]1C(=O)N[C@@H](CC(N)=O)C(=O)N[C@H]2C(=O)N[C@H]3C(=O)N[C@H](C(=O)N[C@H](C(=O)O)c4cc(O)cc(O)c4-c4cc3ccc4O)[C@H](O)c3ccc(c(Cl)c3)Oc3cc2cc(c3O[C@@H]2O[C@H](CO)[C@@H](O)[C@H](O)[C@H]2O[C@H]2C[C@](C)(N)[C@H](O)[C@H](C)O2)Oc2ccc(cc2Cl)[C@H]1O` [Vancomycin]: in the data set with rats [1], the kidney histopathological findings result is “significant proximal tubular cell injury and repair”. Moreover, the “urinary markers KIM-1, clusterin, osteopontin (OPN)” value in the data set on rats [2] was “significant elevations of all markers”. For the same molecule, the half-life (commonly how long it takes for the measured level to halve) in data set [3] (humans with normal renal function) is “three to six”. In data set [3] (humans, multiple intravenous infusions of 1 gram over 60 minutes, 11 hours after end of infusion), the mean plasma concentration was 8 µg/mL. In addition, the “recovered unchanged in urine” value in data set [3] (within 24 h after a single dose) was 80%-90. The same molecule returned a Lambda z in data set [4] of 0.879. For the same molecule, in data set [4] (serum, iv), the AUC(0-inf) (as a rule, total exposure, with the tail of the curve extrapolated) stood at 34800 ng·h/mL; the concentration peaked (Cmax) at 34600 ng/mL; the Tmax – broadly, the time from dosing to the highest level – is 0 h; the half-life was 48 min.

The values are drawn from US20220296515A1, “Vancomycin Liposome Compositions and Methods” (Nevakar Injectables Inc., priority 2019, published 2022).
